Values of other authors, collected in patent US20220372506A1, “CYP81E GENES […] TOLERANCE” (Colorado State University Research Foundation, priority 2020, published 2022).
Entries after “also recorded” stand apart in the source; their conditions may differ.

Legend:
[1] = tested on: A. tuberculatus CHR population; conditions: CHR population compared to WUS; for level of resistance (dose response): Evans et al. 2019
[2] = tested on: A. tuberculatus NEB population
[3] = tested on: A. tuberculatus NEB population; conditions: malathion pre-treatment before 2,4-D, Figueiredo et al. 2018

Which “level of resistance (dose response)” value [1] does the source give for `O=C(O)COc1ccc(Cl)cc1Cl` [2,4-D, 2,4-dichlorophenoxyacetic acid] here?
Its value is 9 fold.

And the “level of 2,4-D resistance” value ([2]; NEB population compared to the Nebraska 2,4-D sensitive population, Bernards et al. 2012)?
The value was 10 fold.

With `CCOC(=O)CC(SP(=S)(OC)OC)C(=O)OCC` (stereo not drawn) [malathion] as the compound, how does the “effect of pre-treatment on 2,4-D resistance phenotype” value [3] read?
Its value is “reverted to sensitivity; also recorded: reversed the resistance phenotype”.

With `CS(=O)(=O)c1ccc(C(=O)C2C(=O)CCCC2=O)c([N+](=O)[O-])c1` [mesotrione] as the compound, how does the “level of resistance (dose response)” value [1] read?
The value was roughly 15 fold.

For `CS(=O)(=O)c1ccc(C(=O)C2C(=O)CCCC2=O)c(Cl)c1COCC(F)(F)F` [tembotrione], which resistance to tembotrione ([1]; Murphy and Tranel, 2019) is on record?
The resistance to tembotrione was 43 fold.

What about the resistance to tembotrione ([2]; NEB population compared to WUS, Murphy and Tranel, 2019) of the same compound?
Its resistance to tembotrione is 15 fold.
